Measurements: patent US20110142848A1, “ANTI-BETA-2-MICROGLOBULIN AGENTS AND THE USE THEREOF” (priority 2008, published 2011)

Legend:
[1] = tested on: C4-2B (KD) cells; assay: MTS cell proliferation assay, C4-2B (KD); assay type: cell-based, human; conditions: C4-2B (KD) versus neo-control
Experimental: For example, six thousand (6,000) cells per well may be plated in 96 well plates, which may be cultured in 1% DCC-FBS (dextran-coated, charcoal-treated fetal bovine serum) containing T medium (C4-2B) or serum-free T medium (PC3) with 5% CO2 at 37° C. overnight. Cells may then be treated with anti-β2-M mAbs for 48 h. […] Two to four days post-treatment, cell growth may be determined by MTS assay using the CellTiter96 Aqueous One Solution Cell Proliferation Assay (Promega) according to the manufacturer's instructions.

[2] = tested on: neo-control cells; assay: MTS cell proliferation assay, neo-control cells; assay type: cell-based, human
Experimental: For example, six thousand (6,000) cells per well may be plated in 96 well plates, which may be cultured in 1% DCC-FBS (dextran-coated, charcoal-treated fetal bovine serum) containing T medium (C4-2B) or serum-free T medium (PC3) with 5% CO2 at 37° C. overnight. Cells may then be treated with anti-β2-M mAbs for 48 h. Chemotherapeutic agents, such as PS-341, gemcitabine, cisplatin, doxorubicin, taxotere, or 17-AAG, may then be added to the culture media. Two to four days post-treatment, cell growth may be determined by MTS assay using the CellTiter96 Aqueous One Solution Cell Proliferation Assay (Promega) according to the manufacturer's instructions. Results from these experiments are shown in FIGS. 7-21, with various chemotherapeutic agents.

N.N.[Cl][Pt][Cl] [cisplatin]
sensitivity to growth inhibition, β2-M knockdown cells compared with neo-control cells [1]: more sensitive

CC(=O)O[C@@]12CO[C@@H]1C[C@H](O)[C@@]1(C)C(=O)[C@H](O)C3=C(C)[C@@H](OC(=O)[C@H](O)[C@@H](NC(=O)OC(C)(C)C)c4ccccc4)C[C@@](O)([C@@H](OC(=O)c4ccccc4)[C@H]21)C3(C)C [taxotere]
sensitivity to growth inhibition, β2-M knockdown cells compared with neo-control cells [1]: more sensitive

CC(C)C[C@H](NC(=O)[C@H](Cc1ccccc1)NC(=O)c1cnccn1)B(O)O [PS-341, bortezomib]
sensitivity to growth inhibition, β2-M knockdown cells compared with neo-control cells [1]: more sensitive | growth inhibition by agent alone ([2]; PS-341 at concentrations of 1 (AM or higher)): effective by itself

Nc1ccn([C@@H]2O[C@H](CO)[C@@H](O)C2(F)F)c(=O)n1 [gemcitabine]
sensitivity to growth inhibition, β2-M knockdown cells compared with neo-control cells [1]: more sensitive | growth inhibition by agent alone ([2]; gemcitabine at lower doses (10 μM or lower)): not particularly effective
